Test results from ChEMBL document CHEMBL4706604, “Design, synthesis and biological evaluation of indanone-chalcone hybrids as potent and selective hCES2A inhibitors” (Eur J Med Chem, 2021).

Experiments:
Cocaine esterase = biological target: T1, Cocaine esterase (Homo sapiens, UniProt O00748); assay: Inhibition of hCES2A in human liver microsome assessed as reduction in fluorescein diacetate hydrolysis preincubated for 10 mins followed by substrate addition measured after 20 mins by fluorescence analysis; assay type: microsomes
T1 sequence (O00748 whole entry): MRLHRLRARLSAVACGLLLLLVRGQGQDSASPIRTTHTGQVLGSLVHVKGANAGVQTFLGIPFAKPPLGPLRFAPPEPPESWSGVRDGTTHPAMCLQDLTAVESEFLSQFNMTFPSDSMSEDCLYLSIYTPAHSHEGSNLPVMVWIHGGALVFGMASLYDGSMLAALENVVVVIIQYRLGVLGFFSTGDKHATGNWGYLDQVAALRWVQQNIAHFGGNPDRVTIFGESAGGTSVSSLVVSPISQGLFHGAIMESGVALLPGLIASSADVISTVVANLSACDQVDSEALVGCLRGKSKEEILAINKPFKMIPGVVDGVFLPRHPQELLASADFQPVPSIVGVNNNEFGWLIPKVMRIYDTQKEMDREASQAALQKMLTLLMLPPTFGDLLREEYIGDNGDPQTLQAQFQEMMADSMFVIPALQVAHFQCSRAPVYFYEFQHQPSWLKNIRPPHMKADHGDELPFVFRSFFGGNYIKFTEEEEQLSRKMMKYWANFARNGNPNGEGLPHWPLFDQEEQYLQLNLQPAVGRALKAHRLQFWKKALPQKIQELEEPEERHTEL

[1] = Metabolic stability at phase 2 in human liver microsomes assessed as half life at 10 uM by LC-UV analysis
Liver carboxylesterase 1 = biological target: T2, Liver carboxylesterase 1 (Homo sapiens, UniProt P23141); assay: Inhibition of hCES1A in human liver microsome assessed as reduction in D-Iuciferin methyl ester hydrolysis preincubated for 10 mins followed by substrate addition measured after 10 mins by luminescence analysis; assay type: microsomes
T2 sequence (P23141 whole entry): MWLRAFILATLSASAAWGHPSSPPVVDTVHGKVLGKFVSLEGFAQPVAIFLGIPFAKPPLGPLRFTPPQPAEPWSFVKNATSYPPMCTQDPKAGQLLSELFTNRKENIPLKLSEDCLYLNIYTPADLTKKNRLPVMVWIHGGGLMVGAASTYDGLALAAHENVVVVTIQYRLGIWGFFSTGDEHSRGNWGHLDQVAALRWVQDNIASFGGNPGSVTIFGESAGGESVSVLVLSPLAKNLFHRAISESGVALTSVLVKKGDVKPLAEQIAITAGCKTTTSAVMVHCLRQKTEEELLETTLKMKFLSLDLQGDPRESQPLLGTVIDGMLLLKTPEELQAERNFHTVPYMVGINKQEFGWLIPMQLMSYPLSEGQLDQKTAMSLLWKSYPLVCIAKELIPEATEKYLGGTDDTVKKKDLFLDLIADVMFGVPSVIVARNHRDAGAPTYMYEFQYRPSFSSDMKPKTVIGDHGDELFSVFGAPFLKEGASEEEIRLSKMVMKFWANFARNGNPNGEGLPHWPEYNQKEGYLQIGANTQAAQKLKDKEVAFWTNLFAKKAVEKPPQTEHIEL

Cholinesterase = Cholinesterase (Homo sapiens, UniProt P06276); assay: Inhibition of BChE in human plasma assessed as reduction in butyrylthiocholineiodide hydrolysis preincubated for 3 mins followed by substrate addition; assay type: cell-free
Cholinesterase, sequence (P06276 whole entry): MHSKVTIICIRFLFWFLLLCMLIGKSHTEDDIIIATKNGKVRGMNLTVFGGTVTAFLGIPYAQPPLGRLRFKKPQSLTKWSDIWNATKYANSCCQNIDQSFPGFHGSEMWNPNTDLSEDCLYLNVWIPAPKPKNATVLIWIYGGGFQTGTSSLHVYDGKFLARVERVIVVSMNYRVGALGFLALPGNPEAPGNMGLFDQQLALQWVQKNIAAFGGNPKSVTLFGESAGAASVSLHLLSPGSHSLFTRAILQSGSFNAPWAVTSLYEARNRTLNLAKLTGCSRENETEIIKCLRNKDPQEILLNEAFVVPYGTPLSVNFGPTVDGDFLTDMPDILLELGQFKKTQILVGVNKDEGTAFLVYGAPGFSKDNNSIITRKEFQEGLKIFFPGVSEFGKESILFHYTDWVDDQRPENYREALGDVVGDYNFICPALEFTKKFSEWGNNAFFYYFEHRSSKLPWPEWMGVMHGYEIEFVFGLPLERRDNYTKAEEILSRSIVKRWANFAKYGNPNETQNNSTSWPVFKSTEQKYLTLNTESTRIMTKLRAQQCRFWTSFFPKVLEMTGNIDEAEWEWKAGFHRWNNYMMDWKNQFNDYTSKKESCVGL

[2] = Metabolic stability at phase 1 in human liver microsomes assessed as half life at 10 uM by LC-UV analysis

Structure (SMILES) | IC50 (Cocaine esterase) | other results
O=C1/C(=C/c2ccc(O)cc2)Cc2ccc(O)cc21 | 5940 nM | –
COc1cc(/C=C2\Cc3ccc(N)cc3C2=O)ccc1O | 1480 nM | –
COc1cc(/C=C2\Cc3ccc(OC(C)C)cc3C2=O)ccc1O | 2860 nM | –
O=C1/C(=C/c2ccc(O)c(O)c2)Cc2ccc(O)cc21 | 2810 nM | –
COc1cc(/C=C2\Cc3ccccc3C2=O)ccc1O | 1310 nM | –
COc1ccc(/C=C2\Cc3ccc(O)cc3C2=O)c(OC)c1OC | 5230 nM | –
COc1cc(/C=C2\Cc3ccc(N4CCCC4)cc3C2=O)ccc1O | – | half-life at 10 µM [1]: 1.72 h; IC50 (Liver carboxylesterase 1): > 100000 nM; IC50 (Cholinesterase): > 100000 nM; half-life at 10 µM [2]: 1.6 h
COc1ccc(/C=C2\Cc3ccc(O)cc3C2=O)cc1 | 56000 nM | –
COc1ccc2c(c1)C(=O)/C(=C/c1ccc(O)c(OC)c1)C2 | 2910 nM | –
CCCOc1ccc2c(c1)C(=O)/C(=C/c1ccc(O)c(OC)c1)C2 | 1620 nM | –
COc1cc(/C=C2\Cc3ccc(O)cc3C2=O)ccc1O | 1090 nM | –
